From US10351613B2, “Polypeptide for inhibition of tumor” (G-Bio Pharma Tech Co., Ltd., priority 2015, dated 2019)
In brackets after ≈: the same amount, converted by molar mass. Residues, ends and D or L forms follow the SMILES beside them.

Assays:
[1] = tested on: tumor cell HepG2; assay type: cell-based
Experimental: (§1) Inhibition of cell growth was detected by a MTT method, which is based on the principle that succinate dehydrogenase in the mitochondria of the live cells could reduce the exogenous MTT (3-(4,5-dimethyl-2-thiazolyl)-2,5-diphenyl-tetrazolium bromide) to a […] Formazan which is a blue-violet crystal, and precipitates in the cells, while the death cells could not reduce MTT. DMSO could dissolve Formazan in the cells. Absorbance value of the solution was determined at 490/570 nm by microplate reader, which could indirectly indicate the amount of the live cells. The amount of the crystal from MTT is proportional to the amount of the cells within a certain range of cell number. The supernate from the HUVEC or tumor cells in exponential phase was removed and the cells were washed by PBS once. 1 ml 0.25% trypsin (4° C.) was added for digestion at 37° C. for 2 min. Then the supernate was added for neutralization and the cells were dispersed to form a suspension and the suspension was centrifuged at 1000 rpm for 3 min. The supernate was removed and 5 ml culture mediums were added for resuspension. Cells were inoculated in a 48-well plate by 500 ul/well at the concentration of 3×10^4/ml and then incubated under 5% CO2, 37° C. for 24 hours. The supernate was removed and a culture medium containing polypeptide (Zn^2+ in the culture medium was present at the concentration of 17.39 μmol/L) was added for further incubation for 48 hours. Supernate in each well was carefully removed. The well was gently washed by PBS once in an amount of 450 μl/well. 450 μl MTT culture mediums were added into each well for further cultivation for 4 hours. The supernate was carefully discarded. DMSO was added in an amount of 450 μl/well and then the plate was placed in a shaking bed for oscillation for 10 min in dark. 150 μl supernates were transferred to a 96-well ELISA plate and absorbance value of each well was detected at 490 nm and 570 nm by the microplate reader.

[2] = tested on: Human Umbilical Vein Endothelial Cell (HUVEC); assay type: cell-based; conditions: for biological activity compared with P2: inhibition of HUVEC and HepG2; for Cell Survival (%) at a polypeptide concentration of 120 μM: 6 h
Experimental: 20 cm umbilical cord adjacent to fetus was taken, cleaned by washing, ligated at both ends, placed into 150 ml preservation solutions for umbilical cord, and stored in a 4° C. refrigerator for digestion for 6 hours. The umbilical cord was inspected to remove the damaged portion. The umbilical vein was thoroughly cleaned by washing and then 10 ml collagenase solution was injected. Then the umbilical vein was transferred to a 37° C. incubator for digestion for 15 minutes. The umbilical cord was removed and the digested solution was recovered. The digested solution was washed by PBS and centrifuged. After centrifugation, the cells were culture by re-suspension.
as §1

For `CC[C@H](C)[C@H](NC(=O)CNC(=O)[C@H](CCCNC(=N)N)NC(=O)[C@H](CCSC)NC(=O)CNC(=O)CNC(=O)[C@H](CO)NC(=O)[C@H](CC(C)C)NC(=O)[C@H](CC(N)=O)NC(=O)[C@H](CO)NC(=O)[C@H](CC(N)=O)NC(=O)[C@H](CC(C)C)NC(=O)[C@H](C)NC(=O)[C@@H](NC(=O)[C@H](CC(C)C)NC(=O)[C@H](Cc1c[nH]cn1)NC(=O)[C@H](CC(C)C)NC(=O)[C@@H](NC(=O)[C@@H]1CCCN1C(=O)[C@H](CCC(N)=O)NC(=O)[C@H](Cc1ccccc1)NC(=O)[C@H](CC(=O)O)NC(=O)[C@H](CCCNC(=N)N)NC(=O)[C@H](Cc1c[nH]cn1)NC(=O)[C@H](CO)NC(=O)[C@H](Cc1c[nH]cn1)NC(C)=O)C(C)C)C(C)C)C(=O)N[C@@H](CCCNC(=N)N)C(=O)NCC(=O)N[C@@H](C)C(=O)N[C@@H](CC(=O)O)C(N)=O` [Polypeptide P2N18] (Ac-HSHRDFQPVLHLVALNSNLSGGMRGIRGAD-NH2), the “IC50 (ug/ml) HepG2” value [1] was 1387.0 µg/mL (≈ 421 µM), the “Cell Survival (%), 1 mg/ml of polypeptide, HepG2” value (shortened to “Cell Survival (%) … HepG2”) [1] was 85% and the “IC50 (ug/ml) HUVEC” value [2] was 1080.8 µg/mL (≈ 328 µM). For the same compound, the “Cell Survival (%), 1 mg/ml of polypeptide, HUVEC” value (“Cell Survival (%) … HUVEC” for short) [2] was 91% and the “biological activity compared with P2” value [2] was “lower biological activity than P2”.

With `CC[C@H](C)[C@H](NC(=O)CNC(=O)[C@H](CCCNC(=N)N)NC(=O)[C@H](CCSC)NC(=O)CNC(=O)CNC(=O)[C@H](CO)NC(=O)[C@H](CC(C)C)NC(=O)[C@H](CO)NC(=O)[C@H](CO)NC(=O)[C@H](CC(N)=O)NC(=O)[C@H](CC(C)C)NC(=O)[C@H](C)NC(=O)[C@@H](NC(=O)[C@H](CC(C)C)NC(=O)[C@H](Cc1c[nH]cn1)NC(=O)[C@H](CC(C)C)NC(=O)[C@@H](NC(=O)[C@@H]1CCCN1C(=O)[C@H](CCC(N)=O)NC(=O)[C@H](Cc1ccccc1)NC(=O)[C@H](CC(=O)O)NC(=O)[C@H](CCCNC(=N)N)NC(=O)[C@H](Cc1c[nH]cn1)NC(=O)[C@H](CO)NC(=O)[C@H](Cc1c[nH]cn1)NC(C)=O)C(C)C)C(C)C)C(=O)N[C@@H](CCCNC(=N)N)C(=O)NCC(=O)N[C@@H](C)C(=O)N[C@@H](CC(=O)O)C(N)=O` [Polypeptide P2S18] (Ac-HSHRDFQPVLHLVALNSSLSGGMRGIRGAD-NH2) the “Cell Survival (%) … HepG2” value [1] was 70%, the “Cell Survival (%) … HUVEC” value [2] was 73% and the “biological activity compared with P2” value [2] was “lower biological activity than P2”.

For `CC(=O)N[C@@H](Cc1c[nH]cn1)C(=O)N[C@H](C(=O)N[C@@H](Cc1c[nH]cn1)C(=O)N[C@@H](CCCNC(=N)N)C(=O)N[C@@H](CC(=O)O)C(=O)N[C@@H](Cc1ccccc1)C(=O)N[C@@H](CCC(N)=O)C(=O)N1CCC[C@H]1C(=O)N[C@H](C(=O)N[C@@H](CC(C)C)C(=O)N[C@@H](Cc1c[nH]cn1)C(=O)N[C@@H](CC(C)C)C(=O)N[C@H](C(=O)N[C@@H](C)C(=O)N[C@@H](CC(C)C)C(N)=O)C(C)C)C(C)C)[C@@H](C)O` [Polypeptide P2T2-15, Ac-HTHRDFQPVLHLVAL-NH2] (Ac-HTHRDFQPVLHLVAL-NH2), the “Cell Survival (%) at a polypeptide concentration of 120 μM” value (“Cell Survival (%) … of 120 μM” below) [2] was 95%.

For `CC[C@H](C)[C@H](NC(=O)CNC(=O)[C@H](CCCNC(=N)N)NC(=O)[C@H](CCSC)NC(=O)CNC(=O)CNC(=O)[C@H](CO)NC(=O)[C@H](CC(C)C)NC(=O)[C@H](CC(N)=O)NC(=O)[C@H](CO)NC(=O)[C@H](CC(N)=O)NC(=O)[C@H](CC(C)C)NC(=O)[C@H](C)NC(=O)[C@@H](NC(=O)[C@H](CC(C)C)NC(=O)[C@H](Cc1c[nH]cn1)NC(=O)[C@H](CC(C)C)NC(=O)[C@@H](NC(=O)[C@@H]1CCCN1C(=O)[C@H](CCC(N)=O)NC(=O)[C@H](Cc1ccccc1)NC(=O)[C@H](CC(=O)O)NC(=O)[C@H](CCCNC(=N)N)NC(=O)[C@H](Cc1c[nH]cn1)NC(=O)[C@@H](NC(=O)[C@H](Cc1c[nH]cn1)NC(C)=O)[C@@H](C)O)C(C)C)C(C)C)C(=O)N[C@@H](CCCNC(=N)N)C(=O)NCC(=O)N[C@@H](C)C(=O)N[C@@H](CC(=O)O)C(N)=O` [Polypeptide P2T2N18] (Ac-HTHRDFQPVLHLVALNSNLSGGMRGIRGAD-NH2), the “IC50 (ug/ml) HepG2” value [1] was 187.9 µg/mL (≈ 56.8 µM), the “Cell Survival (%) … HepG2” value [1] was 7% and the “IC50 (ug/ml) HUVEC” value [2] was 71.4 µg/mL (≈ 21.6 µM). The “Cell Survival (%) … HUVEC” value [2] was 3%, the “reduction of IC50 concentration as compared to that of P2” value ([2]; HUVEC and HepG2) was “about 10 folds” and the “biological activity compared with P2” value [2] was “obviously higher than that of P2”.

With `CC(=O)N[C@@H](Cc1c[nH]cn1)C(=O)N[C@H](C(=O)N[C@@H](Cc1c[nH]cn1)C(=O)N[C@@H](CCCNC(=N)N)C(=O)N[C@@H](CC(=O)O)C(=O)N[C@@H](Cc1ccccc1)C(=O)N[C@@H](CCC(N)=O)C(=O)N1CCC[C@H]1C(=O)N[C@H](C(=O)N[C@@H](CC(C)C)C(=O)N[C@@H](Cc1c[nH]cn1)C(=O)N[C@@H](CC(C)C)C(=O)N[C@H](C(=O)N[C@@H](C)C(=O)N[C@@H](CC(C)C)C(=O)N[C@@H](CC(N)=O)C(=O)N[C@@H](CO)C(=O)N[C@@H](CO)C(=O)N[C@@H](CC(C)C)C(=O)N[C@@H](CO)C(N)=O)C(C)C)C(C)C)[C@@H](C)O` [Polypeptide P2T2S18-20] (Ac-HTHRDFQPVLHLVALNSSLS-NH2) the “Cell Survival (%) … of 120 μM” value [2] was 52%.

`CSCC[C@H](NC(=O)CNC(=O)CNC(=O)[C@H](CO)NC(=O)[C@H](CC(C)C)NC(=O)[C@H](CO)NC(=O)[C@H](CO)NC(=O)[C@H](CC(N)=O)NC(=O)[C@H](CC(C)C)NC(=O)[C@H](C)NC(=O)[C@@H](NC(=O)[C@H](CC(C)C)NC(=O)[C@H](Cc1c[nH]cn1)NC(=O)[C@H](CC(C)C)NC(=O)[C@@H](NC(=O)[C@@H]1CCCN1C(=O)[C@H](CCC(N)=O)NC(=O)[C@H](Cc1ccccc1)NC(=O)[C@H](CC(=O)O)NC(=O)[C@H](CCCNC(=N)N)NC(=O)[C@H](Cc1c[nH]cn1)NC(=O)[C@@H](NC(=O)[C@H](Cc1c[nH]cn1)NC(C)=O)[C@@H](C)O)C(C)C)C(C)C)C(=O)N[C@@H](CCCNC(=N)N)C(=O)NCC(N)=O` [Polypeptide P2T2S18-25] (Ac-HTHRDFQPVLHLVALNSSLSGGMRG-NH2) was tested, and the “Cell Survival (%) … of 120 μM” value [2] was 31%.

For `CC[C@H](C)[C@H](NC(=O)CNC(=O)[C@H](CCCNC(=N)N)NC(=O)[C@H](CCSC)NC(=O)CNC(=O)CNC(=O)[C@H](CO)NC(=O)[C@H](CC(C)C)NC(=O)[C@H](CO)NC(=O)[C@H](CO)NC(=O)[C@H](CC(N)=O)NC(=O)[C@H](CC(C)C)NC(=O)[C@H](C)NC(=O)[C@@H](NC(=O)[C@H](CC(C)C)NC(=O)[C@H](Cc1c[nH]cn1)NC(=O)[C@H](CC(C)C)NC(=O)[C@@H](NC(=O)[C@@H]1CCCN1C(=O)[C@H](CCC(N)=O)NC(=O)[C@H](Cc1ccccc1)NC(=O)[C@H](CC(=O)O)NC(=O)[C@H](CCCNC(=N)N)NC(=O)[C@H](Cc1c[nH]cn1)NC(=O)[C@@H](NC(=O)[C@H](Cc1c[nH]cn1)NC(C)=O)[C@@H](C)O)C(C)C)C(C)C)C(=O)N[C@@H](CCCNC(=N)N)C(=O)NCC(=O)N[C@@H](C)C(=O)N[C@@H](CC(=O)O)C(=O)N[C@@H](Cc1ccccc1)C(=O)N[C@@H](CCC(N)=O)C(=O)N[C@@H](CS)C(=O)N[C@@H](Cc1ccccc1)C(=O)N[C@@H](CCC(N)=O)C(N)=O` [Polypeptide P2T2S18-35] (Ac-HTHRDFQPVLHLVALNSSLSGGMRGIRGADFQCFQ-NH2), the “Cell Survival (%) … of 120 μM” value [2] was 15%.

`CC[C@H](C)[C@H](NC(=O)CNC(=O)[C@H](CCCNC(=N)N)NC(=O)[C@H](CCSC)NC(=O)CNC(=O)CNC(=O)[C@H](CO)NC(=O)[C@H](CC(C)C)NC(=O)[C@H](CO)NC(=O)[C@H](CO)NC(=O)[C@H](CC(N)=O)NC(=O)[C@H](CC(C)C)NC(=O)[C@H](C)NC(=O)[C@@H](NC(=O)[C@H](CC(C)C)NC(=O)[C@H](Cc1c[nH]cn1)NC(=O)[C@H](CC(C)C)NC(=O)[C@@H](NC(=O)[C@@H]1CCCN1C(=O)[C@H](CCC(N)=O)NC(=O)[C@H](Cc1ccccc1)NC(=O)[C@H](CC(=O)O)NC(=O)[C@H](CCCNC(=N)N)NC(=O)[C@H](Cc1c[nH]cn1)NC(=O)[C@@H](NC(=O)[C@H](Cc1c[nH]cn1)NC(C)=O)[C@@H](C)O)C(C)C)C(C)C)C(=O)N[C@@H](CCCNC(=N)N)C(=O)NCC(=O)N[C@@H](C)C(=O)N[C@@H](CC(=O)O)C(=O)N[C@@H](Cc1ccccc1)C(=O)N[C@@H](CCC(N)=O)C(=O)N[C@@H](CS)C(=O)N[C@@H](Cc1ccccc1)C(=O)N[C@@H](CCC(N)=O)C(=O)N[C@@H](CCC(N)=O)C(=O)N[C@@H](C)C(=O)N[C@@H](CCCNC(=N)N)C(=O)N[C@@H](C)C(=O)N[C@H](C(N)=O)C(C)C` [Polypeptide P2T2S18-40] (Ac-HTHRDFQPVLHLVALNSSLSGGMRGIRGADFQCFQQARAV-NH2) was tested, and the “Cell Survival (%) … of 120 μM” value [2] was 49%.

“Ac-HTHRDFQPVLHLVALNSSLSGGMRGIRGA-NH2 [Polypeptide P2T2S18-29]” was tested, and the “biological activity compared with P2” value [2] was “siginficalty higher than P2”.

In the case of “Ac-HTHRDFQPVLHLVALNSSLSGGMRGIRGADFQCFQQARAVGLAGT-NH2 [Polypeptide P2T2S18-45]”, the “Cell Survival (%) … of 120 μM” value [2] is reported as 80%.
